Reference: patent US20240279278A1, “NMU RECEPTOR 2 AGONISTS” (Boehringer Ingelheim International GmbH, priority 2023, published 2024)
Each block holds one molecule with its values, some of them ahead of it. Starred links: 1 amine or outer side, 2 acyl side, 3 side chain; linkers in the order of their positions; H or OH if unused. Non-standard residues stand in square brackets, D forms with d. Residues, ends and D or L forms follow the SMILES beside them. *: point of attachment. Pipz(1-CH2CO,4-CH2CH2NH) = O=C(CN1CCN(CCN[*:1])CC1)[*:2]; C18 diacid = O=C(O)CCCCCCCCCCCCCCCCC(=O)*; γGlu = O=C(O)[C@H](CCC(=O)[*:2])N[*:1]; 3Pal = N[C@@H](Cc1cccnc1)C(=O)O; NMeL = CN[C@@H](CC(C)C)C(=O)O; Nle = CCCC[C@H](N)C(=O)O; Sar = CNCC(=O)O

Experiments:
Type in all cases: cell-based
human NMUR1 receptor = biological target: T1, human NMUR1 receptor (Homo sapiens, UniProt Q9HB89); assay: IP1 Gq HTRF assay, activation of human NMUR1 in buffer; details: CHO-K1 cells expressing human NMUR1, stimulation buffer with 0.1% BSA; read-out: EC50 (hNMUR1) buffer
T1 construct: expressed in transfected cells; host or cells: CHO-K1
T1 sequence (Q9HB89 1-426): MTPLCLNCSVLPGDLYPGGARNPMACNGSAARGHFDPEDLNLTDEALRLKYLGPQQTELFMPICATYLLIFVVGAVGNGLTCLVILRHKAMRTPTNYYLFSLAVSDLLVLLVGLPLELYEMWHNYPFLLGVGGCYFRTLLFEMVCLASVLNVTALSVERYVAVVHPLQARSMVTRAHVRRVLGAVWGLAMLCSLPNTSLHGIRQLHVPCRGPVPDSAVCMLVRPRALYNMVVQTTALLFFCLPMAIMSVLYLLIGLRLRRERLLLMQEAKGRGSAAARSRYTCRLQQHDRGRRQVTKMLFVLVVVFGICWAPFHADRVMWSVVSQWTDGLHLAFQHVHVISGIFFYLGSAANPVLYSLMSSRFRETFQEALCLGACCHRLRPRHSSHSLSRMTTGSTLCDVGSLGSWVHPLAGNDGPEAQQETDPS
Outline: (§1)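 CHO-K1 cells stably expressing human NMUR1 or NMUR2, seeded 24 h before assay, stimulated with peptide agonists (8-point dose-response, 1% DMSO final) in HEPES/HBSS buffer with 50 mM LiCl and 0.1% BSA, pH 7.4, 1 h at 37 °C. IP1 accumulation read by HTRF competition (665/620 nm); EC50 from 4-parameter sigmoidal fit.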

human NMUR2 receptor [1] = biological target: T2, human NMUR2 receptor (Homo sapiens, UniProt Q9GZQ4); assay: IP1 Gq HTRF assay, activation of human NMUR2 in buffer; set-up: expressed in transfected cells; host or cells: CHO-K1; details: CHO-K1 cells expressing human NMUR2, stimulation buffer with 0.1% BSA; read-out: EC50 (hNMUR2) buffer
Outline: as §1

human NMUR2 receptor [2] = biological target: T2, human NMUR2 receptor; assay: IP1 Gq HTRF assay, activation of human NMUR2 in human plasma; set-up: expressed in transfected cells; host or cells: CHO-K1; details: CHO-K1 cells expressing human NMUR2, 100% human plasma; read-out: EC50 (hNMUR2) human plasma
Outline: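 CHO-K1 cells stably expressing human NMUR2 exposed to peptide agonists (8-point dose-response) in 100% human plasma with 50 mM LiCl, 1% DMSO, for 1 h at 37° C. IP1 accumulation read by HTRF competition (665/620 nm ratio). EC50 from 4-parameter sigmoidal fit.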

T2 sequence (Q9GZQ4 whole entry): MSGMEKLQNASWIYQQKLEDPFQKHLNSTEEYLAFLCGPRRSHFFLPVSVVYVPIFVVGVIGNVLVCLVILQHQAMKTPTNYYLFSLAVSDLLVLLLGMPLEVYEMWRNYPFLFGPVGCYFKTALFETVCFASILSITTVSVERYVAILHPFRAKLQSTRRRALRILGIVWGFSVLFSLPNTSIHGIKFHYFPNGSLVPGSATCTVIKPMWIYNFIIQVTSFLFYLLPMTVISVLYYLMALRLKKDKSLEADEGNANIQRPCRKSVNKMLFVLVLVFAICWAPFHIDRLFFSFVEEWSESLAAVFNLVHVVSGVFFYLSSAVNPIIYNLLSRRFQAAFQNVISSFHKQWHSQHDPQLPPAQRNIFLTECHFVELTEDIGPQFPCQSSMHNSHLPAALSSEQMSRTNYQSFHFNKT

Structure (SMILES): CCCC[C@H](NC(=O)[C@H](CC(C)C)N(C)C(=O)[C@H](Cc1ccccc1)NC(=O)[C@H](Cc1ccc(O)cc1)NC(=O)CN1CCN(CCNC(=O)CN(C)C(=O)CN(C)C(=O)CN(C)C(=O)CN(C)C(=O)CN(C)C(=O)CN(C)C(=O)CN(C)C(=O)CN(C)C(=O)CN(C)C(=O)CN(C)C(=O)CN(C)C(=O)CN(C)C(=O)CN(C)C(=O)CN(C)C(=O)CN(C)C(=O)CC[C@H](NC(=O)CC[C@H](NC(=O)CC[C@H](NC(=O)CCCCCCCCCCCCCCCCC(=O)O)C(=O)O)C(=O)O)C(=O)O)CC1)C(=O)N(C)[C@@H](CCCNC(=N)N)C(=O)N1CCC[C@H]1C(=O)N[C@@H](CCCNC(=N)N)C(=O)NCC(N)=O [Compound 52, C18DA-gGlu3-Sar15-AEPipAc-Tyr-Phe-NMeLeu-Nle-NMeArg-Pro-Arg-Gly-NH2] (HELM PEPTIDE1{[O=C(O)CCCCCCCCCCCCCCCCC(=O)[*:2]].[gGlu].[gGlu].[gGlu].[Sar].[Sar].[Sar].[Sar].[Sar].[Sar].[Sar].[Sar].[Sar].[Sar].[Sar].[Sar].[Sar].[Sar].[Sar].[O=C(CN1CCN(CCN[*:1])CC1)[*:2]].Y.F.[meL].[Nle].[meR].P.R.G.[am]}$$$$V2.0)
- EC50 (human NMUR1 receptor): 200 nM
- EC50 (human NMUR2 receptor [1]): 1.4 nM
- EC50 (human NMUR2 receptor [2]): 6.4 nM

Structure (SMILES): CCCC[C@H](NC(=O)[C@H](CC(C)C)N(C)C(=O)[C@H](Cc1ccccc1)NC(=O)[C@H](Cc1ccc(O)cc1)NC(=O)CN1CCN(CCNC(=O)CN(C)C(=O)CN(C)C(=O)CN(C)C(=O)CN(C)C(=O)CN(C)C(=O)CN(C)C(=O)CN(C)C(=O)CN(C)C(=O)CN(C)C(=O)CC[C@H](NC(=O)CC[C@H](NC(=O)CC[C@H](NC(=O)CCCCCCCCCCCCCCCCC(=O)O)C(=O)O)C(=O)O)C(=O)O)CC1)C(=O)N[C@@H](CCCNC(=N)N)C(=O)N(C)[C@@H](C)C(=O)N[C@@H](CCCNC(=N)N)C(=O)NCC(N)=O [Compound 73, C18DA-gGlu3-Sar9-AEPipAc-Tyr-Phe-NMeLeu-Nle-Arg-NMeAla-Arg-Gly-NH2] (HELM PEPTIDE1{[O=C(O)CCCCCCCCCCCCCCCCC(=O)[*:2]].[gGlu].[gGlu].[gGlu].[Sar].[Sar].[Sar].[Sar].[Sar].[Sar].[Sar].[Sar].[Sar].[O=C(CN1CCN(CCN[*:1])CC1)[*:2]].Y.F.[meL].[Nle].R.[meA].R.G.[am]}$$$$V2.0)
- EC50 (human NMUR1 receptor): 540 nM
- EC50 (human NMUR2 receptor [1]): 1.9 nM
- EC50 (human NMUR2 receptor [2]): 15.6 nM

Structure (SMILES): CCCC[C@H](NC(=O)[C@H](CC(C)C)N(C)C(=O)[C@H](Cc1ccccc1)NC(=O)[C@H](Cc1ccc(O)cc1)NC(=O)CN1CCN(CCNC(=O)CN(C)C(=O)CN(C)C(=O)CN(C)C(=O)CN(C)C(=O)CN(C)C(=O)CN(C)C(=O)CN(C)C(=O)CN(C)C(=O)CN(C)C(=O)CN(C)C(=O)CN(C)C(=O)CN(C)C(=O)CN(C)C(=O)CN(C)C(=O)CN(C)C(=O)CC[C@H](NC(=O)CC[C@H](NC(=O)CC[C@H](NC(=O)CCCCCCCCCCCCCCCCC(=O)O)C(=O)O)C(=O)O)C(=O)O)CC1)C(=O)N[C@@H](Cc1c[nH]cn1)C(=O)N1CCC[C@H]1C(=O)N[C@@H](CCCNC(=N)N)C(=O)NCC(N)=O [Compound 51, C18DA-gGlu3-Sar15-AEPipAc-Tyr-Phe-NMeLeu-Nle-His-Pro-Arg-Gly-NH2] (HELM PEPTIDE1{[O=C(O)CCCCCCCCCCCCCCCCC(=O)[*:2]].[gGlu].[gGlu].[gGlu].[Sar].[Sar].[Sar].[Sar].[Sar].[Sar].[Sar].[Sar].[Sar].[Sar].[Sar].[Sar].[Sar].[Sar].[Sar].[O=C(CN1CCN(CCN[*:1])CC1)[*:2]].Y.F.[meL].[Nle].H.P.R.G.[am]}$$$$V2.0)
- EC50 (human NMUR1 receptor): > 1000 nM
- EC50 (human NMUR2 receptor [1]): 19 nM
- EC50 (human NMUR2 receptor [2]): 112 nM

Structure (SMILES): CCCC[C@H](NC(=O)[C@H](CC(C)C)N(C)C(=O)[C@H](Cc1ccccc1)NC(=O)[C@H](Cc1ccc(O)cc1)NC(=O)CN1CCN(CCNC(=O)CN(C)C(=O)CN(C)C(=O)CN(C)C(=O)CN(C)C(=O)CN(C)C(=O)CN(C)C(=O)CN(C)C(=O)CN(C)C(=O)CN(C)C(=O)CN(C)C(=O)CN(C)C(=O)CN(C)C(=O)CN(C)C(=O)CN(C)C(=O)CN(C)C(=O)CC[C@H](NC(=O)CC[C@H](NC(=O)CC[C@H](NC(=O)CCCCCCCCCCCCCCCCCCC(=O)O)C(=O)O)C(=O)O)C(=O)O)CC1)C(=O)N[C@@H](CCCCN)C(=O)N(C)[C@@H](C)C(=O)N[C@@H](CCCNC(=N)N)C(=O)NCC(N)=O [Compound 50, C20DA-gGlu3-Sar15-AEPipAc-Tyr-Phe-NMeLeu-Nle-Lys-NMeAla-Arg-Gly-NH2] (HELM PEPTIDE1{[O=C(O)CCCCCCCCCCCCCCCCCCC(=O)[*:2]].[gGlu].[gGlu].[gGlu].[Sar].[Sar].[Sar].[Sar].[Sar].[Sar].[Sar].[Sar].[Sar].[Sar].[Sar].[Sar].[Sar].[Sar].[Sar].[O=C(CN1CCN(CCN[*:1])CC1)[*:2]].Y.F.[meL].[Nle].K.[meA].R.G.[am]}$$$$V2.0)
- EC50 (human NMUR1 receptor): > 1000 nM
- EC50 (human NMUR2 receptor [1]): 23 nM
- EC50 (human NMUR2 receptor [2]): 69.9 nM

Structure (SMILES): CCCC[C@H](NC(=O)[C@H](CC(C)C)N(C)C(=O)[C@H](Cc1ccccc1)NC(=O)[C@H](Cc1ccc(O)cc1)NC(=O)CN1CCN(CCNC(=O)CN(C)C(=O)CN(C)C(=O)CN(C)C(=O)CN(C)C(=O)CN(C)C(=O)CN(C)C(=O)CN(C)C(=O)CN(C)C(=O)CN(C)C(=O)CC[C@H](NC(=O)CC[C@H](NC(=O)CC[C@H](NC(=O)CCCCCCCCCCCCCCCCCCC(=O)O)C(=O)O)C(=O)O)C(=O)O)CC1)C(=O)N[C@@H](CCCNC(=N)N)C(=O)N(C)[C@@H](C)C(=O)N[C@@H](CCCNC(=N)N)C(=O)NCC(N)=O [Compound 62, C20DA-gGlu3-Sar9-AEPipAc-Tyr-Phe-NMeLeu-Nle-Arg-NMeAla-Arg-Gly-NH2] (HELM PEPTIDE1{[O=C(O)CCCCCCCCCCCCCCCCCCC(=O)[*:2]].[gGlu].[gGlu].[gGlu].[Sar].[Sar].[Sar].[Sar].[Sar].[Sar].[Sar].[Sar].[Sar].[O=C(CN1CCN(CCN[*:1])CC1)[*:2]].Y.F.[meL].[Nle].R.[meA].R.G.[am]}$$$$V2.0)
- EC50 (human NMUR1 receptor): 440 nM
- EC50 (human NMUR2 receptor [1]): 3.1 nM
- EC50 (human NMUR2 receptor [2]): 14.2 nM

- EC50 (human NMUR1 receptor): > 1000 nM
- EC50 (human NMUR2 receptor [1]): 28 nM
- EC50 (human NMUR2 receptor [2]): 122 nM
Structure (SMILES): CCCC[C@H](NC(=O)[C@H](CC(C)C)N(C)C(=O)[C@H](Cc1ccccc1)NC(=O)[C@H](Cc1ccc(O)cc1)NC(=O)CN1CCN(CCNC(=O)CN(C)C(=O)CN(C)C(=O)CN(C)C(=O)CN(C)C(=O)CN(C)C(=O)CN(C)C(=O)CN(C)C(=O)CN(C)C(=O)CN(C)C(=O)CN(C)C(=O)CN(C)C(=O)CN(C)C(=O)CN(C)C(=O)CN(C)C(=O)CN(C)C(=O)CC[C@H](NC(=O)CC[C@H](NC(=O)CC[C@H](NC(=O)CCCCCCCCCCCCCCCCC(=O)O)C(=O)O)C(=O)O)C(=O)O)CC1)C(=O)N[C@@H](Cc1cccnc1)C(=O)N1CCC[C@H]1C(=O)N[C@@H](CCCNC(=N)N)C(=O)NCC(N)=O [Compound 54, C18DA-gGlu3-Sar15-AEPipAc-Tyr-Phe-NMeLeu-Nle-3Pal-Pro-Arg-Gly-NH2] ({C18 diacid-γGlu-γGlu-γGlu}-[Sar][Sar][Sar][Sar][Sar][Sar][Sar][Sar][Sar][Sar][Sar][Sar][Sar][Sar][Sar][Pipz(1-CH2CO,4-CH2CH2NH)]YF[NMeL][Nle][3Pal]PRG-NH2)
